Data as given in DBAASP.
Converted amounts (≈) assume the structure as drawn.

Legend:
Assay in all cases: ≥ marks a high value that may be exact or a test limit, other limits are often not marked, values filed in µg/mL are converted to µM
[1] = tested on: Staphylococcus aureus NCTC 10442
Staphylococcus aureus = tested on: Staphylococcus aureus
[2] = tested on: Pseudomonas aeruginosa ATCC 27853
Acinetobacter baumannii = tested on: Acinetobacter baumannii
[3] = tested on: Acinetobacter baumannii ATCC BAA-747
Staphylococcus aureus MR = tested on: Staphylococcus aureus MR
Escherichia coli = tested on: Escherichia coli
[4] = tested on: Escherichia coli ATCC 25922
Klebsiella pneumoniae = tested on: Klebsiella pneumoniae
[5] = tested on: Klebsiella pneumoniae ATCC 700603
Salmonella typhimurium = tested on: Salmonella typhimurium
Saccharomyces cerevisiae = tested on: Saccharomyces cerevisiae
Bacillus subtilis = tested on: Bacillus subtilis
Candida albicans = tested on: Candida albicans
Pseudomonas putida = tested on: Pseudomonas putida
[6] = tested on: Escherichia coli ATCC 23716
Cryptococcus neoformans = tested on: Cryptococcus neoformans
Serratia marcescens = tested on: Serratia marcescens
Bacillus subtilis SMY = tested on: Bacillus subtilis SMY
Streptococcus mutans = tested on: Streptococcus mutans
Streptococcus pneumoniae = tested on: Streptococcus pneumoniae
Escherichia coli D31 = tested on: Escherichia coli D31
[7] = tested on: Listeria monocytogenes DSM 20600
[8] = tested on: Micrococcus luteus DSM 20030
[9] = tested on: Listeria fleischmannii DSM 24998
Listeria grayi DSM 20601 = tested on: Listeria grayi DSM 20601
[10] = tested on: Stenotrophomonas maltophilia ATCC 13637
[11] = tested on: Staphylococcus aureus ATCC 25923
[12] = tested on: Micrococcus luteus ATCC 10240
Streptococcus agalactiae = tested on: Streptococcus agalactiae
[13] = tested on: Bacillus subtilis ATCC 6633
[14] = tested on: Staphylococcus aureus NBRC 12732
Shigella boydii = tested on: Shigella boydii
[15] = tested on: Escherichia coli NBRC 14237
Enterobacter cloacae = tested on: Enterobacter cloacae
Streptococcus pyogenes = tested on: Streptococcus pyogenes
Enterococcus faecalis = tested on: Enterococcus faecalis
Proteus mirabilis = tested on: Proteus mirabilis
[16] = tested on: Candida albicans ATCC 90112
[17] = tested on: Saccharomyces cerevisiae NBRC 10217
Morganella morganii = tested on: Morganella morganii
[18] = tested on: Micrococcus luteus NBRC 12708
[19] = tested on: Bacillus atrophaeus BM013
[20] = tested on: Bacillus licheniformis ATCC 21424
[21] = tested on: Salmonella enterica subsp. enterica serovar Enteritidis 706 RIVM
[22] = tested on: Pseudomonas aeruginosa PAO1
[23] = tested on: Staphylococcus aureus WKZ-2
[24] = tested on: Staphylococcus aureus ATCC 29213

## CC[C@H](C)[C@H](NC(=O)[C@H](CCSC)NC(=O)[C@H](C)NC(=O)[C@@H]1CCCN1C(=O)[C@@H](NC(=O)[C@@H](NC(=O)[C@H](CCCCN)NC(=O)[C@@H](NC(=O)[C@H](CC(C)C)NC(=O)CNC(=O)CNC(=O)[C@H](CC(C)C)NC(=O)[C@@H](N)Cc1ccccc1)[C@@H](C)CC)[C@@H](C)CC)C(C)C)C(=O)N[C@@H](CS)C(=O)N[C@@H](C)C(=O)N[C@H](C(=O)N[C@H](C(=O)N[C@@H](CCCCN)C(=O)N[C@@H](CCCCN)C(=O)N[C@@H](CS)C(=O)N[C@@H](Cc1cnc[nH]1)C(=O)N[C@@H](Cc1cnc[nH]1)C(=O)N[C@@H](Cc1cnc[nH]1)C(=O)N[C@@H](Cc1cnc[nH]1)C(=O)N[C@@H](Cc1cnc[nH]1)C(=O)N[C@@H](Cc1cnc[nH]1)C(=O)O)[C@@H](C)O)C(C)C [FLGGLIKIVPAMICAVTKKCHHHHHH]
[1]
  MIC: 5.46 µM (≈ 16 µg/mL)
Staphylococcus aureus
  MIC: 5.46 µM (≈ 16 µg/mL)
[2]
  MIC: 43.7 µM (≈ 128 µg/mL)
Acinetobacter baumannii
  MIC: 10.9 µM (≈ 32 µg/mL)
[3]
  MIC: 21.9 µM (≈ 64 µg/mL)
Staphylococcus aureus MR
  MIC: 2.73 µM (≈ 8 µg/mL)
Escherichia coli
  MIC: 7.73 µM (≈ 22.6 µg/mL)
[4]
  MIC: 10.9 µM (≈ 32 µg/mL)
Klebsiella pneumoniae
  MIC: 21.9 µM (≈ 64 µg/mL)
[5]
  MIC: 43.7 µM (≈ 128 µg/mL)

## CC(C)C[C@H](NC(=O)[C@H](CC(C)C)NC(=O)[C@H](CCCN=C(N)N)NC(=O)[C@H](Cc1cnc[nH]1)NC(=O)[C@@H](NC(=O)[C@H](CCCN=C(N)N)NC(=O)CNC(=O)[C@@H](NC(=O)[C@@H]1CCCN1C(=O)[C@@H](N)Cc1ccccc1)C(C)C)C(C)C)C(=O)N[C@@H](CCCN=C(N)N)C(=O)N[C@@H](CCCCN)C(=O)O [FPVGRVHRLLRK]
Salmonella typhimurium
  MIC: 10.8 µM (≈ 16 µg/mL)
Staphylococcus aureus
  MIC: 21.7 µM (≈ 32 µg/mL)
Saccharomyces cerevisiae
  MIC: ≥ 43.3 µM
Bacillus subtilis
  MIC: 21.7 µM (≈ 32 µg/mL)
Candida albicans
  MIC: 21.7 µM (≈ 32 µg/mL)
Pseudomonas putida
  MIC: ≥ 43.3 µM
[6]
  MIC: ≥ 173 µM
Cryptococcus neoformans
  MIC: ≥ 43.3 µM
Escherichia coli
  MIC: 21.7 µM (≈ 32 µg/mL)
Serratia marcescens
  MIC: 21.7 µM (≈ 32 µg/mL)
Bacillus subtilis SMY
  MIC: ≥ 173 µM
Streptococcus mutans
  MIC: 21.7 µM (≈ 32 µg/mL)
Streptococcus pneumoniae
  MIC: 21.7 µM (≈ 32 µg/mL)

## CC[C@H](C)[C@H](NC(=O)[C@H](C)NC(=O)[C@H](CO)NC(=O)[C@H](CCCCN)NC(=O)[C@@H]1CCCN1C(=O)[C@@H](NC(=O)[C@H](CCCCN)NC(=O)[C@H](CC(C)C)NC(=O)[C@H](CO)NC(=O)[C@H](CC(C)C)NC(=O)[C@H](CCCCN)NC(=O)[C@H](CC(C)C)NC(=O)[C@H](Cc1ccccc1)NC(=O)[C@@H]1CCCN1C(=O)[C@@H](N)Cc1ccccc1)[C@@H](C)CC)C(=O)N[C@@H](CCCCN)C(=O)N[C@@H](CO)C(=O)N[C@@H](C)C(=O)N[C@H](C(=O)N[C@@H](CCCCN)C(=O)N[C@@H](CCCN=C(N)N)C(=O)N[C@@H](CC(C)C)C(N)=O)[C@@H](C)CC [FPFLKLSLKIPKSAIKSAIKRL]
Escherichia coli D31
  MIC: 8 µM (≈ 20 µg/mL)
[7]
  MIC: 30 µM (≈ 74.9 µg/mL)
[8]
  MIC: 0.25 µM (≈ 0.625 µg/mL)
[9]
  MIC: 30 µM (≈ 74.9 µg/mL)
Listeria grayi DSM 20601
  MIC: 8 µM (≈ 20 µg/mL)

## CC[C@H](C)[C@H](NC(=O)[C@H](CC(C)C)NC(=O)[C@@H]1CCCN1C(=O)[C@H](CC(C)C)NC(=O)[C@H](CCCCN)NC(=O)[C@H](CCCCN)NC(=O)[C@H](CC(C)C)NC(=O)[C@H](CC(C)C)NC(=O)[C@H](C)NC(=O)[C@@H](NC(=O)[C@H](Cc1ccccc1)NC(=O)CN)C(C)C)C(=O)N[C@@H](CC(C)C)C(=O)N[C@@H](CCCCN)C(=O)N[C@@H](Cc1cnc[nH]1)C(=O)N[C@@H](CC(C)C)C(=O)N[C@@H](Cc1cnc[nH]1)C(N)=O [GFVALLKKLPLILKHLH]
[10]
  MIC: 3.75 µM (≈ 7.27 µg/mL)
Saccharomyces cerevisiae
  MIC: 3.75 µM (≈ 7.27 µg/mL)
[11]
  MIC: 15 µM (≈ 29.1 µg/mL)
[2]
  MIC: 7.5 µM (≈ 14.5 µg/mL)
[12]
  MIC: 1.9 µM (≈ 3.69 µg/mL)
Acinetobacter baumannii
  MIC: 3.75 µM (≈ 7.27 µg/mL)
Streptococcus agalactiae
  MIC: 3.75 µM (≈ 7.27 µg/mL)
[13]
  MIC: 3.75 µM (≈ 7.27 µg/mL)
[14]
  MIC: 1.57 µM (≈ 3.05 µg/mL)
Shigella boydii
  MIC: 3.75 µM (≈ 7.27 µg/mL)
[15]
  MIC: 3.12 µM (≈ 6.05 µg/mL)
Enterobacter cloacae
  MIC: 7.5 µM (≈ 14.5 µg/mL)
[4]
  MIC: 3.75 µM (≈ 7.27 µg/mL)
Streptococcus pyogenes
  MIC: 3.75 µM (≈ 7.27 µg/mL)
Enterococcus faecalis
  MIC: 15 µM (≈ 29.1 µg/mL)
Serratia marcescens
  MIC: 7.5 µM (≈ 14.5 µg/mL)
Proteus mirabilis
  MIC: 30 µM (≈ 58.2 µg/mL)
Klebsiella pneumoniae
  MIC: 3.75 µM (≈ 7.27 µg/mL)
[16]
  MIC: 7.5 µM (≈ 14.5 µg/mL)
[17]
  MIC: 6.25 µM (≈ 12.1 µg/mL)
Morganella morganii
  MIC: 30 µM (≈ 58.2 µg/mL)
[18]
  MIC: 3.12 µM (≈ 6.05 µg/mL)

## CC[C@H](C)[C@H](NC(=O)[C@H](Cc1ccccc1)NC(=O)[C@H](CCCCN)NC(=O)[C@H](CC(C)C)NC(=O)[C@H](CCCCN)NC(=O)CNC(=O)[C@@H]1CCCN1C(=O)[C@H](CCCCN)NC(=O)[C@H](CC(C)C)NC(=O)[C@H](C)NC(=O)[C@@H](NC(=O)[C@H](Cc1cnc[nH]1)NC(=O)[C@@H]1CCCN1)C(C)C)C(=O)N[C@H](C(=O)N1CCC[C@H]1C(=O)N[C@@H](CO)C(=O)N1CCC[C@H]1C(=O)N[C@@H](CCCCN)C(=O)N[C@@H](CCCN=C(N)N)C(=O)N1CCC[C@H]1C(=O)N[C@H](C(=O)N[C@@H](CCCCN)C(=O)N[C@@H](CC(C)C)C(=O)N[C@@H](CC(C)C)C(=O)N[C@@H](CO)C(=O)NCC(=O)O)C(C)C)[C@@H](C)CC [PHVALKPGKLKFIIPSPKRPVKLLSG]
[19]
  MIC: 2.5 µM (≈ 7.05 µg/mL)
[2]
  MIC: > 40 µM
[20]
  MIC: 1.25 µM (≈ 3.53 µg/mL)
[21]
  MIC: ≥ 40 µM
[4]
  MIC: 10 µM (≈ 28.2 µg/mL)
[22]
  MIC: 20 µM (≈ 56.4 µg/mL)
[23]
  MIC: ≥ 40 µM
[24]
  MIC: > 40 µM
